Reference: US11866483B2, “Fibrosis-inhibiting composition, cells producing same, and cell sheet comprising said cells” (KanonCure, Inc., priority 2018, dated 2024)

Tests used:
MMP-1 = test: Western blotting of culture supernatant of UE7T-13 cells, MMP-1; type: cell-based; settings: 15 μM IC-2, UE7T-13 cells, culture supernatant Day 9, vs 0.1% DMSO
Protocol: (§1) The number of the culture dishes prepared was 6.
(§2) The culture medium was exchanged in the same manner as Day 0. […] That is, the cells of chemical-untreated group, of which culture medium was collected for MSC, were seeded on 3 culture dishes with a diameter of 10 cm.
(§3) (2) A 12 ml aliquot of the supernatant was transferred to an Amicon Ultra-15 Centrifugal Filter Unit and was centrifuged at 5,000 g for 60 to 90 min.
(§4) (3) The absorbance of the enriched culture supernatant (secretome) was measured using a NanoDrop at 280 nm and the protein level was assayed. The blank culture medium and 2× modified RIPA buffer were added to adjust the protein concentration to 1.0 μg/μl. Then, a sonicator (BioRuptur manufactured by COSMO BIO, Tokyo, Japan) was used to perform the total 1 min and 4 cycles of sonication, each cycle including sonication at 200 W for 15 sec and a pause for 30 sec in ice bath. Then, 5×SDS sample buffer was added to adjust the protein concentration to 0.8 μg/μl. Finally, a block incubator (IKA, Staufen, Germany) was used for heat denaturing at 98° C. for 5 min. […]
(§5) After completion of the primary antibody reaction, the membranes were washed in a suitable volume of TBS-T for 10 min 3 times. […] After that, 1 ml of ECL Prime liquid (GE Healthcare Life Sciences) was applied to each membrane of which chemiluminescence was detected with a LAS-4000 (Fujifilm Corporation, Tokyo, Japan).

MMP-14 = test: Western blotting of culture supernatant of UE7T-13 cells, MMP-14; type: cell-based; settings: 15 μM IC-2, UE7T-13 cells, culture supernatant Day 9, vs 0.1% DMSO
Protocol: as §1, §2, §3, §4, §5

thioredoxin (TRX) = settings: 15 μM IC-2, UE7T-13 cells, culture supernatant Day 9
Protocol: Expression and production of MMP family members and TRX in cultured cells or the secreted products of those cells were determined by Western blotting and ELISA.
Cells: bone marrow-derived mesenchymal stem cell line, UE7T-13 cells.
UE7T-13 cells were seeded on each culture dish with a diameter of 10 cm such that the cell count in each dish was 9.0×10^3 cells/cm^2. The number of the culture dishes prepared was 6.
Cells in the remaining 3 culture dishes were treated with DMSO as control. Specifically, DMSO was added by completely exchanging the culture medium with DMEM/10% FBS containing DMSO at the final concentration of 0.1%.
For the DMSO treatment control, the culture medium was completely exchanged with DMEM/0.05% FBS containing DMSO at the final concentration of 0.1%. For the MSC group, the culture medium was completely exchanged with DMEM/0.05% FBS.
(1) A 5 ml aliquot of culture medium was collected from the culture dishes and these aliquots were combined in one tube for each group. […]
The aliquots of culture supernatants collected at Day 9 for ELISA assay were used to determine the production of thioredoxin by ELISA. […] The absorbance at 450 nm was measured using a microplate reader (Tecan Group Ltd). The content of thioredoxin in the culture supernatants was calculated from the absorbance using the calibration curve.

MMP-2 = test: Western blotting of culture supernatant of UE7T-13 cells, MMP-2; type: cell-based; settings: 15 μM IC-2, UE7T-13 cells, culture supernatant Day 9, vs 0.1% DMSO
Protocol: as §1, §2, §3, §4, §5

MMP-13 (active form) = test: Western blotting of culture supernatant of UE7T-13 cells, MMP-13; type: cell-based; settings: 15 μM IC-2, UE7T-13 cells, culture supernatant Day 9, vs 0.1% DMSO
Protocol: as §1, §2, §3, §4, §5

O=C1[C@H](c2ccccc2)N2C(=O)CCN(C(=O)NCc3ccccc3)[C@H]2CN1Cc1cccc2ccccc12 [IC-2, (6S, 9aS)-6-phenyl-8-naphthalen-1-ylmethyl-4,7-dioxo-hexahydro-pyrazino[1,2-a] pyrimidine-1-carbocylic acid benzylamide]
MMP-1 increase as compared to DMSO control group (chemiluminescence band intensity) (MMP-1): about 4.1 fold | MMP-14 increase as compared to DMSO control group (chemiluminescence band intensity) (MMP-14): about 2.1 fold | production of thioredoxin, increase (ELISA) (thioredoxin (TRX)): 1.5 fold | MMP-2 increase as compared to DMSO control group (chemiluminescence band intensity) (MMP-2): about 1.5 fold | MMP-13 (active form) increase as compared to DMSO control group (chemiluminescence band intensity) (MMP-13 (active form)): about 5.1 fold
